Measured values as given in paper PMC4948722 (Cancer research, 2011).

Tests used:
Assay in all cases: kinase panel, […] compound, […] ATP
Assay type in all cases: biochemical
Details in all cases: read-out: % inhibition at 1 μM
[1] = target: T1, GCK (Homo sapiens, UniProt Q12851)
T1 sequence (Q12851 1-820): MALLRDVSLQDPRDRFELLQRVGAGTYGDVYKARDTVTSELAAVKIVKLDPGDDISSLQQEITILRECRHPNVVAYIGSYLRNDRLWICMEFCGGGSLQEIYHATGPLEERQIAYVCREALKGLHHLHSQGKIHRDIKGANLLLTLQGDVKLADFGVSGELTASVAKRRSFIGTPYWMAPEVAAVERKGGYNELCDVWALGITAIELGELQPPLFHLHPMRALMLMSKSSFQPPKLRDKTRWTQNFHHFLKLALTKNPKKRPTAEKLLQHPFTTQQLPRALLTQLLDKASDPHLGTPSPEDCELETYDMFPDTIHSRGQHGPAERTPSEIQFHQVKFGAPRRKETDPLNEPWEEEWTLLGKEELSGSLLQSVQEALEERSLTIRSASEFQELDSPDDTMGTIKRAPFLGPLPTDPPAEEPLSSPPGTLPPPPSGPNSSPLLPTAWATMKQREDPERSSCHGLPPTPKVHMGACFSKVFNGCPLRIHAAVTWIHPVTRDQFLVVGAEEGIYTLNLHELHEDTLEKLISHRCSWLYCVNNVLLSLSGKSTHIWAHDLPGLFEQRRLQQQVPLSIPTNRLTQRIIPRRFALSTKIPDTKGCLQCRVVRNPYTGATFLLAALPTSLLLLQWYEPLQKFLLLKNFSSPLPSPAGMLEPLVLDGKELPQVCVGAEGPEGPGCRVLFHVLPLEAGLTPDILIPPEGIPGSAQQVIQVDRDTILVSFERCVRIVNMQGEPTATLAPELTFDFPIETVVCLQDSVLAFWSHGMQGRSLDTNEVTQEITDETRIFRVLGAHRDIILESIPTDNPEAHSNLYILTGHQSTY

[2] = target: MLK1 (Homo sapiens, UniProt P80192)
[3] = target: MARK3 (Homo sapiens, UniProt P27448)

Measured: inhibition at 1 µM

MLK1, sequence (P80192 whole entry): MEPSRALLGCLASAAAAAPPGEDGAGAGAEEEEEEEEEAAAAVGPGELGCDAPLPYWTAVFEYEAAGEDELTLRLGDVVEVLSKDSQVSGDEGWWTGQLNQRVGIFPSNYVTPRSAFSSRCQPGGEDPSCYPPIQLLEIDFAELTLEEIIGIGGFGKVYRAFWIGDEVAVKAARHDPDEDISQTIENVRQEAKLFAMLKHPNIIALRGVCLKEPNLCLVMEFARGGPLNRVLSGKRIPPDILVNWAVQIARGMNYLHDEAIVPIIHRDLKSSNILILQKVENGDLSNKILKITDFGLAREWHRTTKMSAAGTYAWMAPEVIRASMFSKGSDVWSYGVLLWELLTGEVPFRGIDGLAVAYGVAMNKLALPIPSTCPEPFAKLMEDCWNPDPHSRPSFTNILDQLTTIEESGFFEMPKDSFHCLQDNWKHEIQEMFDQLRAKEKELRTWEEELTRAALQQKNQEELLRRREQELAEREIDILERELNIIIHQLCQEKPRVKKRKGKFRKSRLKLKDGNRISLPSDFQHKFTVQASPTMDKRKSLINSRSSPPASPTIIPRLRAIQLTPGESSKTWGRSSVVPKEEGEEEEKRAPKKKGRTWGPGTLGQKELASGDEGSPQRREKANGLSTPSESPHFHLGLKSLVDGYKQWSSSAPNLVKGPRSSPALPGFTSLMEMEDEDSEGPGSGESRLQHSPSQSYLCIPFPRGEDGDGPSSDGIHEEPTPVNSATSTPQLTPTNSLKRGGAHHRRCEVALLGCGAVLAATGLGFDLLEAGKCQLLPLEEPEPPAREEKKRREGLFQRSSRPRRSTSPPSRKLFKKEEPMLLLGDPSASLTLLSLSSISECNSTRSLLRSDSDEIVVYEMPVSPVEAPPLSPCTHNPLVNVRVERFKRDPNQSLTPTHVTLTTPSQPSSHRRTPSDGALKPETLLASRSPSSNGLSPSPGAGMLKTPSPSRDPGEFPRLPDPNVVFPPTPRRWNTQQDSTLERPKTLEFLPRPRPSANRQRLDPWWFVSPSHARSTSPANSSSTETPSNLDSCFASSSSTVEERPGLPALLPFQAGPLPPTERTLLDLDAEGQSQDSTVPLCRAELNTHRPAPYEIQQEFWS
MARK3, sequence (P27448 whole entry): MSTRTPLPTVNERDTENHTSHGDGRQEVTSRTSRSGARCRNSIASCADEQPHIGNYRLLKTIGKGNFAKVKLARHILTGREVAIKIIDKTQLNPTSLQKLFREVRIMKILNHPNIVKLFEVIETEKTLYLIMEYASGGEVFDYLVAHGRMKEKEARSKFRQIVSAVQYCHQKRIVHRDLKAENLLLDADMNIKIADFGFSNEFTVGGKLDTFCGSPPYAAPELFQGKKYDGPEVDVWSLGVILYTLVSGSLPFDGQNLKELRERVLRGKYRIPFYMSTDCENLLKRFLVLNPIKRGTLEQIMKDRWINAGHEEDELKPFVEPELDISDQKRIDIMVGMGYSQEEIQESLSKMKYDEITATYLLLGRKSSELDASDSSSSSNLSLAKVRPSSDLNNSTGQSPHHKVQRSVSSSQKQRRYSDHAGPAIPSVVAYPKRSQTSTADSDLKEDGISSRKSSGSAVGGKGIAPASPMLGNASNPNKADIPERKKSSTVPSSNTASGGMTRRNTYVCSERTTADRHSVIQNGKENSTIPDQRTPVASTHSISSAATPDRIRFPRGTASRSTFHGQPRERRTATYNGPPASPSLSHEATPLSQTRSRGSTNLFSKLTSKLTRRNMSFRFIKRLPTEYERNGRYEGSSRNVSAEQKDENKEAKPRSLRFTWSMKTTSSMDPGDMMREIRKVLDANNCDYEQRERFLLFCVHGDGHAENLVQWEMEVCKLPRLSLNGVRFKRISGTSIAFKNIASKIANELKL

COc1cc2nc(-c3cc(F)ccc3O)nc(N[C@@H]3CNC[C@H]3C(C)(C)O)c2cc1OC [CCT241533]
> 80%: all assays above
